The test system of this assay is microfilariae of Dirofilaria immitis. Kind of assay: Dirofilaria immitis, Microfilaria (DiMF) In vitro Assay. In kind it is cell-based. Particulars: 72 h, read-out: DiMF Minimum Effective Dose (MED), approximately 72 hours incubation, microfilariae assessed for survival or paralysis.

Data on 14 compounds can be found in patent US11331369B2, “Endoparasitic depsipeptides” (Zoetis Services LLC, priority 2017, dated 2022).

In the case of `CC(C)C[C@H]1C(=O)O[C@H](Cc2ccc(Cn3cc(C(C)(C)C)cn3)cc2)C(=O)N(C)[C@@H](CC(C)C)C(=O)O[C@H](C)C(=O)N(C)[C@@H](CC(C)C)C(=O)O[C@H](Cc2ccccc2)C(=O)N(C)[C@@H](CC(C)C)C(=O)O[C@H](C)C(=O)N1C` [Example 2-8, (3S,6R,9S,12R,15S,18R,21S,24R)-6-benzyl-18-[[4-[(4-tert-butylpyrazol-1-yl)methyl]phenyl]methyl]-3,9,15,21-tetraisobutyl-4,10,12,16,22,24-hexamethyl-1,7,13,19-tetraoxa-4,10,16,22-tetrazacyclotetracosane-2,5,8,11,14,17,20,23-octaone], the minimal effective concentration was 0.01 to 0.1 µM.
As for `CCc1cnn(Cc2ccc(C[C@H]3OC(=O)[C@H](CC(C)C)N(C)C(=O)[C@@H](C)OC(=O)[C@H](CC(C)C)N(C)C(=O)[C@@H](Cc4ccccc4)OC(=O)[C@H](CC(C)C)N(C)C(=O)[C@@H](C)OC(=O)[C@H](CC(C)C)N(C)C3=O)cc2)c1` [Example 2-9, (3S,6R,9S,12R,15S,18R,21S,24R)-6-benzyl-18-[[4-[(4-ethylpyrazol-1-yl)methyl]phenyl]methyl]-3,9,15,21-tetraisobutyl-4,10,12,16,22,24-hexamethyl-1,7,13,19-tetraoxa-4,10,16,22-tetrazacyclotetracosane-2,5,8,11,14,17,20,23-octaone], the minimal effective concentration lay within 0.01 to 0.1 µM.
Regarding `Cc1nn(Cc2ccc(C[C@H]3OC(=O)[C@H](CC(C)C)N(C)C(=O)[C@@H](C)OC(=O)[C@H](CC(C)C)N(C)C(=O)[C@@H](Cc4ccccc4)OC(=O)[C@H](CC(C)C)N(C)C(=O)[C@@H](C)OC(=O)[C@H](CC(C)C)N(C)C3=O)cc2)c(C)c1C` [Example 2-11, (3S,6R,9S,12R,15S,18R,21S,24R)-6-benzyl-3,9,15,21-tetraisobutyl-4,10,12,16,22,24-hexamethyl-18-(4-((3,4,5-trimethyl-1H-pyrazol-1-yl)methyl)benzyl)-1,7,13,19-tetraoxa-4,10,16,22-tetraazacyclotetracosan-2,5,8,11,14,17,20,23-octaone], the minimal effective concentration lay in the range of 0.01 to 0.1 µM.
On to `CCOC(=O)c1cnn(Cc2ccc(C[C@H]3OC(=O)[C@H](CC(C)C)N(C)C(=O)[C@@H](C)OC(=O)[C@H](CC(C)C)N(C)C(=O)[C@@H](Cc4ccccc4)OC(=O)[C@H](CC(C)C)N(C)C(=O)[C@@H](C)OC(=O)[C@H](CC(C)C)N(C)C3=O)cc2)c1` [Example 2-12, ethyl 1-(4-(((2R,5S,8R,11S,14R,17S,20R,23S)-14-benzyl-5,11,17,23-tetraisobutyl-4,8,10,16,20,22-hexamethyl-3,6,9,12,15,18,21,24-octaoxo-1,7,13,19-tetraoxa-4,10,16,22-tetraazacyclotetracosan-2-yl)methyl)benzyl)-1H-pyrazole-4-carboxylate], for which the minimal effective concentration was 0.001 to 0.01 µM.
Regarding `CC(=O)c1cnn(Cc2ccc(C[C@H]3OC(=O)[C@H](CC(C)C)N(C)C(=O)[C@@H](C)OC(=O)[C@H](CC(C)C)N(C)C(=O)[C@@H](Cc4ccccc4)OC(=O)[C@H](CC(C)C)N(C)C(=O)[C@@H](C)OC(=O)[C@H](CC(C)C)N(C)C3=O)cc2)c1` [Example 2-13, (3S,6R,9S,12R,15S,18R,21S,24R)-6-(4-((4-acetyl-1H-pyrazol-1-yl)methyl)benzyl)-18-benzyl-3,9,15,21-tetraisobutyl-4,10,12,16,22,24-hexamethyl-1,7,13,19-tetraoxa-4,10,16,22-tetraazacyclotetracosan-2,5,8,11,14,17,20,23-octaone], the minimal effective concentration fell in the range of 0.01 to 0.1 µM.
As to `Cc1nn(Cc2ccc(C[C@H]3OC(=O)[C@H](CC(C)C)N(C)C(=O)[C@@H](C)OC(=O)[C@H](CC(C)C)N(C)C(=O)[C@@H](Cc4ccccc4)OC(=O)[C@H](CC(C)C)N(C)C(=O)[C@@H](C)OC(=O)[C@H](CC(C)C)N(C)C3=O)cc2)cc1Br` [Example 2-16, (3S,6R,9S,12R,15S,18R,21S,24R)-6-benzyl-18-(4-((4-bromo-3-methyl-1H-pyrazol-1-yl)methyl)benzyl)-3,9,15,21-tetraisobutyl-4,10,12,16,22,24-hexamethyl-1,7,13,19-tetraoxa-4,10,16,22-tetraazacyclotetracosan-2,5,8,11,14,17,20,23-octaone], the minimal effective concentration was 0.01 to 0.1 µM.
Take `Cc1nn(Cc2ccc(C[C@H]3OC(=O)[C@H](CC(C)C)N(C)C(=O)[C@@H](C)OC(=O)[C@H](CC(C)C)N(C)C(=O)[C@@H](Cc4ccccc4)OC(=O)[C@H](CC(C)C)N(C)C(=O)[C@@H](C)OC(=O)[C@H](CC(C)C)N(C)C3=O)cc2)c(C)c1Br` [Example 2-17, (3S,6R,9S,12R,15S,18R,21S,24R)-6-benzyl-18-(4-((4-bromo-3,5-dimethyl-1H-pyrazol-1-yl)methyl)benzyl)-3,9,15,21-tetraisobutyl-4,10,12,16,22,24-hexamethyl-1,7,13,19-tetraoxa-4,10,16,22-tetraazacyclotetracosan-2,5,8,11,14,17,20,23-octaone]: the minimal effective concentration was 0.01 to 0.1 µM.
As to `CC(C)C[C@H]1C(=O)O[C@H](Cc2ccc(Cn3cc(C(F)F)cn3)cc2)C(=O)N(C)[C@@H](CC(C)C)C(=O)O[C@H](C)C(=O)N(C)[C@@H](CC(C)C)C(=O)O[C@H](Cc2ccccc2)C(=O)N(C)[C@@H](CC(C)C)C(=O)O[C@H](C)C(=O)N1C` [Example 2-18, (3S,6R,9S,12R,15S,18R,21S,24R)-6-benzyl-18-(4-((4-(difluoromethyl)-1H-pyrazol-1-yl)methyl)benzyl)-3,9,15,21-tetraisobutyl-4,10,12,16,22,24-hexamethyl-1,7,13,19-tetraoxa-4,10,16,22-tetraazacyclotetracosan-2,5,8,11,14,17,20,23-octaone], the minimal effective concentration is 0.001 to 0.01 µM.
For the compound `CC(C)C[C@H]1C(=O)O[C@H](Cc2ccc(Cn3cc(C(F)(F)F)cn3)cc2)C(=O)N(C)[C@@H](CC(C)C)C(=O)O[C@H](C)C(=O)N(C)[C@@H](CC(C)C)C(=O)O[C@H](Cc2ccccc2)C(=O)N(C)[C@@H](CC(C)C)C(=O)O[C@H](C)C(=O)N1C` [Example 2-20, (3S,6R,9S,12R,15S,18R,21S,24R)-6-benzyl-3,9,15,21-tetraisobutyl-4,10,12,16,22,24-hexamethyl-18-(4-((4-(trifluoromethyl)-1H-pyrazol-1-yl)methyl)benzyl)-1,7,13,19-tetraoxa-4,10,16,22-tetraazacyclotetracosan-2,5,8,11,14,17,20,23-octaone], the minimal effective concentration was 0.01 to 0.1 µM.
As for `CC(C)C[C@H]1C(=O)O[C@H](Cc2ccc(Cn3cc(S(=O)(=O)N4CCCCC4)cn3)cc2)C(=O)N(C)[C@@H](CC(C)C)C(=O)O[C@H](C)C(=O)N(C)[C@@H](CC(C)C)C(=O)O[C@H](Cc2ccccc2)C(=O)N(C)[C@@H](CC(C)C)C(=O)O[C@H](C)C(=O)N1C` [Example 2-21, (3S,6R,9S,12R,15S,18R,21S,24R)-6-benzyl-3,9,15,21-tetraisobutyl-4,10,12,16,22,24-hexamethyl-18-(4-((4-(piperidin-1-ylsulfonyl)-1H-pyrazol-1-yl)methyl)benzyl)-1,7,13,19-tetraoxa-4,10,16,22-tetraazacyclotetracosan-2,5,8,11,14,17,20,23-octaone], the minimal effective concentration lay in the range of 0.01 to 0.1 µM.
Regarding `CC(C)C[C@H]1C(=O)O[C@H](Cc2ccc(Cn3cc(S(=O)(=O)N4CCOCC4)cn3)cc2)C(=O)N(C)[C@@H](CC(C)C)C(=O)O[C@H](C)C(=O)N(C)[C@@H](CC(C)C)C(=O)O[C@H](Cc2ccccc2)C(=O)N(C)[C@@H](CC(C)C)C(=O)O[C@H](C)C(=O)N1C` [Example 2-23, (3S,6R,9S,12R,15S,18R,21S,24R)-6-benzyl-3,9,15,21-tetraisobutyl-4,10,12,16,22,24-hexamethyl-18-(4-((4-(morpholinosulfonyl)-1H-pyrazol-1-yl)methyl)benzyl)-1,7,13,19-tetraoxa-4,10,16,22-tetraazacyclotetracosan-2,5,8,11,14,17,20,23-octaone], the minimal effective concentration fell in the range of 0.01 to 0.1 µM.
For the compound `CC(C)C[C@H]1C(=O)O[C@H](Cc2ccc(Cn3cc(S(=O)(=O)N4CCCC4)cn3)cc2)C(=O)N(C)[C@@H](CC(C)C)C(=O)O[C@H](C)C(=O)N(C)[C@@H](CC(C)C)C(=O)O[C@H](Cc2ccccc2)C(=O)N(C)[C@@H](CC(C)C)C(=O)O[C@H](C)C(=O)N1C` [Example 2-24, (3S,6R,9S,12R,15S,18R,21S,24R)-6-benzyl-3,9,15,21-tetraisobutyl-4,10,12,16,22,24-hexamethyl-18-(4-((4-(pyrrolidin-1-ylsulfonyl)-1H-pyrazol-1-yl)methyl)benzyl)-1,7,13,19-tetraoxa-4,10,16,22-tetraazacyclotetracosan-2,5,8,11,14,17,20,23-octaone], the minimal effective concentration lay in the range of 0.01 to 0.1 µM.
As to `CCCc1cnn(Cc2ccc(C[C@H]3OC(=O)[C@H](CC(C)C)N(C)C(=O)[C@@H](C)OC(=O)[C@H](CC(C)C)N(C)C(=O)[C@@H](Cc4ccccc4)OC(=O)[C@H](CC(C)C)N(C)C(=O)[C@@H](C)OC(=O)[C@H](CC(C)C)N(C)C3=O)cc2)c1` [Example 2-26, (3S,6R,9S,12R,15S,18R,21S,24R)-6-benzyl-3,9,15,21-tetraisobutyl-4,10,12,16,22,24-hexamethyl-18-(4-((4-propyl-1H-pyrazol-1-yl)methyl)benzyl)-1,7,13,19-tetraoxa-4,10,16,22-tetraazacyclotetracosan-2,5,8,11,14,17,20,23-octaone], the minimal effective concentration was 0.01 to 0.1 µM.
On to `CC(C)C[C@H]1C(=O)O[C@H](Cc2ccc(Cn3cc(S(=O)(=O)N4CCC4)cn3)cc2)C(=O)N(C)[C@@H](CC(C)C)C(=O)O[C@H](C)C(=O)N(C)[C@@H](CC(C)C)C(=O)O[C@H](Cc2ccccc2)C(=O)N(C)[C@@H](CC(C)C)C(=O)O[C@H](C)C(=O)N1C` [Example 2-27, (3S,6R,9S,12R,15S,18R,21S,24R)-6-(4-((4-(azetidin-1-ylsulfonyl)-1H-pyrazol-1-yl)methyl)benzyl)-18-benzyl-3,9,15,21-tetraisobutyl-4,10,12,16,22,24-hexamethyl-1,7,13,19-tetraoxa-4,10,16,22-tetraazacyclotetracosan-2,5,8,11,14,17,20,23-octaone], for which the minimal effective concentration was in the range of 0.01 to 0.1 µM.
